ChEMBL document CHEMBL1938311, “Potent adjuvantic activity of a CCR1-agonistic bis-quinoline” (Bioorg Med Chem Lett, 2012)
Activity calls are given as the source filed them. No cut-off for these calls is given here.

What was measured:
Mus musculus [1] = test: Adjuvantic activity in CF-1 mouse assessed as increase in bovine alpha-lactalbumin-elicited IgG2a production at 50 ug, im followed by booster dose administered on day 14 measured after 21 days; assay type: functional, organism-based
Mus musculus [2] = test: Adjuvantic activity in CF-1 mouse assessed as increase in bovine alpha-lactalbumin-elicited IgG1 production at 50 ug, im followed by booster dose administered on day 14 measured after 21 days; assay type: functional, organism-based
Mus musculus [3] = test: Adjuvantic activity in CF-1 mouse assessed as increase in bovine alpha-lactalbumin-elicited antibodies production at 50 ug, im followed by booster dose administered on day 14 measured after 21 days by surface-plasmon resonance; assay type: functional, organism-based
HEK293 [4] = test: Transactivation of NF-kappaB expressed in HEK293 cells co-transfected TLR2/TLR3/TLR4/TLR5/TLR7/TLR8/TLR9/Nod-1 by alkaline phosphatase reporter gene assay; assay type: cell-based
Blood [5] = test: Pro-inflammatory activity in human whole blood assessed as IL-8 production upto 50 uM; assay type: functional, tissue-based
Blood [6] = test: Pro-inflammatory activity in human whole blood assessed as IL-12 production upto 50 uM; assay type: functional, tissue-based
Blood [7] = test: Pro-inflammatory activity in human whole blood assessed as TNF-alpha production upto 50 uM; assay type: functional, tissue-based
Blood [8] = test: Pro-inflammatory activity in human whole blood assessed as IL-18 production upto 50 uM; assay type: functional, tissue-based
Blood [9] = test: Pro-inflammatory activity in human whole blood assessed as IL1-beta production upto 50 uM; assay type: functional, tissue-based
Blood [10] = test: Antiinflammatory activity in human whole blood assessed as IL-10 production upto 50 uM; assay type: functional, tissue-based
Blood [11] = test: Pro-inflammatory activity in human whole blood assessed as IL-6 production upto 50 uM; assay type: functional, tissue-based
Salmonella typhimurium [12] = test: Mutagenic activity in Salmonella Typhimurium TA1535-S9 by Ames test; assay type: toxicity, organism-based; settings: salmonella enterica subsp. enterica serovar typhimurium
[13] = target: C-C chemokine receptor type 2 (Homo sapiens) (UniProt P41597); test: Agonist activity at CCR2 expressed in CHO cells at 10^-6 to 10^-5 M by cellular dielectric spectroscopy; assay type: functional, cell-based
Salmonella typhimurium [14] = test: Mutagenic activity in Salmonella Typhimurium TA100-S9 by Ames test; assay type: toxicity, organism-based; settings: salmonella enterica subsp. enterica serovar typhimurium
[15] = target: T1, C-X-C chemokine receptor type 2 (Homo sapiens) (UniProt P25025); test: Agonist activity at CXCR2 expressed in CHO cells at 10^-6 to 10^-5 M by cellular dielectric spectroscopy; assay type: functional, cell-based
T1 sequence (whole entry): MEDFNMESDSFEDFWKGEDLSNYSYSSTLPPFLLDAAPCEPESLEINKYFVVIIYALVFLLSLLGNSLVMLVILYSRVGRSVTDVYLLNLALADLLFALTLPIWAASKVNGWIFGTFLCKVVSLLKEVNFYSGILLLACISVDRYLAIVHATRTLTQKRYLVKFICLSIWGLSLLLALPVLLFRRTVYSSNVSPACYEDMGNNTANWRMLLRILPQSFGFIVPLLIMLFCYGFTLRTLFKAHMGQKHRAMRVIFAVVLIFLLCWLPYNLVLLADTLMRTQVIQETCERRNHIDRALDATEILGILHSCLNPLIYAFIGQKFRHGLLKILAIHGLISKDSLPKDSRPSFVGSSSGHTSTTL

PBMC [16] = test: Modulation of inflammation in human PBMC by transcriptional profiling; assay type: functional, cell-based
[17] = target: C-X-C chemokine receptor type 4 (Homo sapiens) (UniProt P61073); test: Agonist activity at CXCR4 expressed in CHO cells at 10^-6 to 10^-5 M by cellular dielectric spectroscopy; assay type: functional, cell-based
[18] = target: T2, C-C chemokine receptor type 3 (Homo sapiens) (UniProt P51677); test: Agonist activity at CCR3 expressed in CHO cells at 10^-6 to 10^-5 M by cellular dielectric spectroscopy; assay type: functional, cell-based
T2 sequence (whole entry): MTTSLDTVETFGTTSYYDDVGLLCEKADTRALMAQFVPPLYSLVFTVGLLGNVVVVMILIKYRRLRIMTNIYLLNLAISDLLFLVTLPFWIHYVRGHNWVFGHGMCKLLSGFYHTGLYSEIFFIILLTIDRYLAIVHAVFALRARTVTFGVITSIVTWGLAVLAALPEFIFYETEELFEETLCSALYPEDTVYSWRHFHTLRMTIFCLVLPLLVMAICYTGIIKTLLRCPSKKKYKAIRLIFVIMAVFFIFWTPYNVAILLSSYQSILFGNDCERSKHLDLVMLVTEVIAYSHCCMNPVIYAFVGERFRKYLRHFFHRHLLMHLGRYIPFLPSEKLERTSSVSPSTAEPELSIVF

Mus musculus [19] = test: Toxicity in CF-1 mouse assessed as mortality up to 100 mg/kg, ip administered as single dose measured at 48 hrs; assay type: organism-based; design: dose 100 mg/kg, route intraperitoneal; settings: in vivo
PBMC [20] = test: Immunostimulatory activity against human PBMC by transcriptional profiling; assay type: functional, cell-based
Salmonella typhimurium [21] = test: Mutagenic activity in Salmonella Typhimurium TA98-S9 by Ames test; assay type: toxicity, organism-based; settings: salmonella enterica subsp. enterica serovar typhimurium
HEK293 [22] = test: Transactivation of NF-kappaB expressed in HEK293 cells by alkaline phosphatase reporter gene assay; assay type: cell-based
[23] = target: T3, C-C chemokine receptor type 1 (Homo sapiens, UniProt P32246); test: Agonist activity at human CCR1 expressed in CHO cells by cellular dielectric spectroscopy; assay type: functional, cell-based
T3 sequence (P32246 whole entry): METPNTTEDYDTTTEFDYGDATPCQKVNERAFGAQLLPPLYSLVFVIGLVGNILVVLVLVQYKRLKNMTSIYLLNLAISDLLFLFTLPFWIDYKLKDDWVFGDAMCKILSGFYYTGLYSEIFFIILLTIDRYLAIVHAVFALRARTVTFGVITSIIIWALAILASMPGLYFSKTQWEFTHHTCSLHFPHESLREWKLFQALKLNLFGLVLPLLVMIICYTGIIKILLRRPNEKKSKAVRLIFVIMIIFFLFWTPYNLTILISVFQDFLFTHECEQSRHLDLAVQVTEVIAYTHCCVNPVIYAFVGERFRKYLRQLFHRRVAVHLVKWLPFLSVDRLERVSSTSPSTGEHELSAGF

Sequence of C-X-C chemokine receptor type 4 (Homo sapiens) (P61073 whole entry): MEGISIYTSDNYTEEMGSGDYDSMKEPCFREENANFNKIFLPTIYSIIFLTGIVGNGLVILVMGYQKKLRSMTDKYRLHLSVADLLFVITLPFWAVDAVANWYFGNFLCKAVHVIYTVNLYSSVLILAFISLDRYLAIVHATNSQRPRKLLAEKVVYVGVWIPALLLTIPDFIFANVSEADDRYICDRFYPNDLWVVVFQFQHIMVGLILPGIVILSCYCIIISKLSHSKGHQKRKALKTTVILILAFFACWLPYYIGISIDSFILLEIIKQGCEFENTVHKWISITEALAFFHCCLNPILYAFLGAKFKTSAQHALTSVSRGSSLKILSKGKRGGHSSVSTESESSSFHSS
Sequence of C-C chemokine receptor type 2 (Homo sapiens) (P41597 whole entry, looked up): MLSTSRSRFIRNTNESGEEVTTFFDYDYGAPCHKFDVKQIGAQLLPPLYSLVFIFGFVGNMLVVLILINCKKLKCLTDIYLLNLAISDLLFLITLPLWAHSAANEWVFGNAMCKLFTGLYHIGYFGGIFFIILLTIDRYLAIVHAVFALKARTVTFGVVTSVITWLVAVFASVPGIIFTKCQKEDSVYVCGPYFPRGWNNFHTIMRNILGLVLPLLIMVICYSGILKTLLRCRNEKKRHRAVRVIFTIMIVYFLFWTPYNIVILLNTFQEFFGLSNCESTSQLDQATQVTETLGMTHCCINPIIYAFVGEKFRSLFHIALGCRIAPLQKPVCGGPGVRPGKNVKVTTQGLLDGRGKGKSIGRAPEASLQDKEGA

For `CCCCCCCCCCCCCC(=O)OC(CCCCCCCCCCC)CC(=O)N[C@H]1[C@H](OC[C@H]2O[C@H](O)[C@H](NC(=O)CC(O)CCCCCCCCCCC)[C@@H](OC(=O)CC(O)CCCCCCCCCCC)[C@@H]2O)O[C@H](CO)[C@@H](OP(=O)(O)O)[C@@H]1OC(=O)CC(CCCCCCCCCCC)OC(=O)CCCCCCCCCCCCC` (stereo not given in full), the Activity (Mus musculus [1]) was “Active”, the Activity (Mus musculus [2]) was “Active” and the Activity (Mus musculus [3]) was “Active”.
`Clc1ccc2c(NCCNc3ccnc4cc(Cl)ccc34)ccnc2c1` was tested, and the Activity (HEK293 [4]) was “inactive”.
In the case of `Clc1ccc2c(NCCCCCCCNc3ccnc4cc(Cl)ccc34)ccnc2c1`, the Activity (HEK293 [4]) is reported as “inactive”.
In the case of `CCN(CC)CCCC(C)Nc1ccnc2cc(Cl)ccc12` (stereo not given), the Activity (HEK293 [4]) is reported as “inactive”.
`Clc1ccc2c(NCCCCCCCCCCNc3ccnc4cc(Cl)ccc34)ccnc2c1` was tested, and the Activity (HEK293 [4]) was “inactive”.
With `Clc1ccc2c(NCCCCCCCCCCCCNc3ccnc4cc(Cl)ccc34)ccnc2c1` the Activity (HEK293 [4]) was “inactive”.
For `Clc1ccc2c(NCCCCCNc3ccnc4cc(Cl)ccc34)ccnc2c1`, the Activity (HEK293 [4]) was “inactive”.
`CCCc1nc2c(N)nc3ccccc3c2s1` was tested, and the Activity (Blood [5]) was “Active”, the Activity (Blood [6]) was “Active” and the Activity (Blood [7]) was “Active”. The Activity (Blood [8]) was “Active”, the Activity (Blood [9]) was “Active” and the Activity (Blood [10]) was “Active”. For the same molecule, the Activity (Blood [11]) was “Active”.
In the case of `CCCCCCCCCCCCCCCC(=O)OCC(CSC[C@H](N)C(=O)N[C@@H](CO)C(=O)O)OC(=O)CCCCCCCCCCCCCCC` (stereo not given in full), the Activity (Mus musculus [1]) is reported as “Active”, the Activity (Mus musculus [2]) is reported as “Active” and the Activity (Mus musculus [3]) is reported as “Active”.
`Clc1ccc2c(NCCCCCCNc3ccnc4cc(Cl)ccc34)ccnc2c1` was tested, and the Activity (HEK293 [4]) was “inactive”.
For `Clc1ccc2c(NCCCCCCCCNc3ccnc4cc(Cl)ccc34)ccnc2c1`, the Activity (HEK293 [4]) was “inactive”.
With `Clc1ccc2c(NCCCNc3ccnc4cc(Cl)ccc34)ccnc2c1` the Activity (HEK293 [4]) was “inactive”.
In the case of `Clc1ccc2c(NCCCCNc3ccnc4cc(Cl)ccc34)ccnc2c1`, the Activity (Blood [5]) is reported as “inactive”, the Activity (Salmonella typhimurium [12]) is reported as “Non-toxic” and the Activity (Blood [6]) is reported as “inactive”. The Activity [13] was “inactive”, the Activity (Salmonella typhimurium [14]) was “Non-toxic” and the Activity (Blood [7]) was “inactive”. For the same molecule, the Activity [15] was “inactive”, the Activity (Blood [8]) was “inactive” and the Activity (Mus musculus [1]) was “Active”. For the same molecule, the Activity (PBMC [16]) was “inactive”, the Activity (Mus musculus [2]) was “Active” and the Activity [17] was “inactive”. The Activity [18] was “inactive”, the Activity (Mus musculus [19]) was “Non-toxic” and the Activity (Blood [9]) was “inactive”. For the same molecule, the Activity (PBMC [20]) was “inactive”, the Activity (Blood [10]) was “inactive” and the Activity (Salmonella typhimurium [21]) was “Non-toxic”. For the same molecule, the Activity (Mus musculus [3]) was “Active”, the Activity (Blood [11]) was “inactive” and the Activity (HEK293 [22]) was “Active”. For the same molecule, the EC50 [23] was 2 µM and the Activity (HEK293 [4]) was “inactive”.
